From ChEMBL document CHEMBL3301361, “Experimental in vitro DMPK and physicochemical data on a set of publicly disclosed compounds”
Structures can show the parent of a compound that is named as a salt. Non-standard residues stand in square brackets, D forms with d. Residues, ends and D or L forms follow the SMILES beside them. Phe(2-Me) = Cc1ccccc1C[C@H](N)C(=O)O

Tests used:
[1] = in vitro; details: human, plasma
[2] = physchem; details: octan-1-ol/water, pH 7.4

SMILES	fraction unbound at 5 h ([1]; PPB)	fraction unbound at 5 h [1]	logD [2]
Cc1cccc(Nc2nc(NCc3ccco3)c3ccccc3n2)c1	0.0007		
Cc1ccc(-c2cc(C(=O)NCc3cn(C)nc3C)c3cc(Br)ccc3n2)cc1	0.0063		
Cc1nc(N2CCOCC2)c2cc(-c3ccccc3)sc2n1	0.0042		
NC(=O)c1ccc(Oc2cccc3cccnc23)c([N+](=O)[O-])c1		0.0383	1.7
O=C(Nc1ccc(Cl)cc1)Nc1nnc(-c2ccncc2)s1	0.0017		
CCn1cc(CNC(=O)c2cc(-c3ccc(C)cc3)nc3ccc(Br)cc23)c(C)n1	0.0011		
NCCCCCc1c[nH]c2ccc(F)cc12		0.36	0.6
O=C(O)c1cn(Cc2ccccc2)c2ccccc12		0.0191	1.19
O=C1COc2ccc(CNC3CCN(CCN4C(=O)COc5ccc(Br)cc54)CC3)nc2N1		0.0262	1.42
CN(C)S(=O)(=O)c1ccc2c(c1)N(CCN1CCC(NCc3ccc4c(n3)NC(=O)CO4)CC1)C(=O)CO2		0.0928	0.15
CS(=O)(=O)c1ccc2c(c1)N(CCN1CCC(NCc3ccc4c(n3)NC(=O)CO4)CC1)C(=O)CO2		0.145	-0.51
CCS(=O)(=O)c1ccc2c(c1)N(CCN1CCC(NCc3ccc4c(n3)NC(=O)CO4)CC1)C(=O)CO2		0.304	-0.11
O=C1COc2ccc(CNC3CCN(CCN4C(=O)COc5ccc(OC(F)(F)F)cc54)CC3)nc2N1		0.0209	1.82
O=C1COc2ccc(CNC3CCN(CCN4C(=O)COc5ccc(Cl)cc54)CC3)nc2N1		0.072	1.33
O=C1COc2ccc(CNC3CCN(CCN4C(=O)COc5ccc(F)cc54)CC3)nc2N1		0.17	0.9
COc1ccc2c(c1)N(CCN1CCC(NCc3ccc4c(n3)NC(=O)CO4)CC1)C(=O)CO2		0.112	0.87
O=C1COc2ccc(CNC3CCN(CCN4C(=O)COc5ccc(-c6ccco6)cc54)CC3)nc2N1		0.006	2.19
Oc1ncc(NCc2ccccc2)c(O)n1		0.635	0.82
CC(C)Nc1nc(NCc2ccccc2)c2sccc2n1		0.0029	3.9
COc1ccc2c(c1)N(CCN1CCC(NCc3cc4c(cn3)OCCO4)CC1)C(=O)CO2		0.176	1.24
O=C1COc2ccccc2N1CCN1CCC(NCc2cc3c(cn2)OCCO3)CC1		0.253	1.04
N#Cc1c(-c2ccc(-c3ccccc3O)cc2)nc2ccncc2c1O	0.0026		
N#Cc1c(-c2ccc(-c3ccncc3Cl)cc2)nc2ccncc2c1O	0.0055		
N#Cc1c(-c2ccc(-c3cccnc3)cc2)nc2ccncc2c1O	0.007		
O=C(Nc1ccccc1F)NC1N=C(c2ccccc2)c2ccccc2NC1=O (centres undefined)		0.0262	3.8
CC(=O)Nc1ccc2ccn(-c3cc(NC4CC4)n4ncc(C#N)c4n3)c2c1		0.0139	3.29

SMILES	fraction unbound at 5 h ([1]; PPB)	fraction unbound at 5 h [1]	logD [2]
O=C(O)C(c1ccccc1)N1CCO[C@H](CN2CCC(Oc3ccc(Cl)c(Cl)c3)CC2)C1 (some centres undefined)	0.0064		
Cc1cc(-c2cc(=O)[nH]c(NCc3cccc4ccccc34)n2)ccn1	0.0025		
Cc1csc(NC(=O)COc2ncnc3c2cnn3-c2ccccc2Cl)n1	0.0082		
COc1cc(OC)c(S(=O)(=O)N2c3ccccc3Oc3ccccc32)cc1NC(=O)Cc1ccnc(F)c1	0.0099		
O=C(NC[C@@H](O)CN1CCC(Oc2ccc(Cl)c(Cl)c2)CC1)c1c[nH]c(=O)c2cc(F)ccc12	0.0108		
Cc1ccc(C(=O)N(CCCN)[C@H](c2nc3cc(Cl)ccc3c(=O)n2Cc2ccccc2)C(C)C)cc1		0.0081	2.88
O=C(Nc1ccccc1-c1cn2c(CN3CCNCC3)csc2n1)c1cnc2ccccc2n1	0.0099		
CC(C)[C@H]1C(=O)N[C@H](CO)Cc2ccccc2N1C		0.371	2.03
COc1ccc2c(O)cc(=O)n(Cc3ccc(-c4ccccc4-c4nn[nH]n4)cc3)c2c1	0.0011		
CN(C)c1cc(NC(=O)Nc2cccc(Cl)c2)c2ccccc2n1	0.0014		
Cc1cc(Nc2nc(N[C@@H](C)c3ccc(F)cc3)ncc2Cl)n[nH]1	0.009		
Cc1ncc(NC(=O)c2cc(NC(=O)c3cc(F)cc(C(F)(F)F)c3)ccc2Cl)s1	0.0035		
O=C(Nc1ccc(Cl)c(C(=O)Nc2cncs2)c1)c1cccc(Cl)c1	0.002		
Cc1ncc(NC(=O)c2cc(NC(=O)c3cccc(C(F)(F)F)c3)ccc2Cl)s1	0.004		
Cc1ncc(NC(=O)c2cc(NC(=O)c3cccc(Cl)c3)ccc2Cl)s1	0.002		
CNC(=O)c1cc(Oc2ccc3c(c2)nc(Nc2ccc(C(F)(F)F)cc2)n3C)ccn1	0.005		
COc1ccc(N(C(=O)c2ccccc2)C(C(=O)NC2CCCC2)c2ccccc2F)c(OC)c1 (centres undefined)	0.0033		
O=C(COc1cccc(Cl)c1)NC1CCN(Cc2ccn(-c3ccc(C(F)(F)F)cc3)c2)CC1	0.0072		
Cc1ncc(NC(=O)c2cc(NC(=O)c3cc(F)cc(Cl)c3)ccc2Cl)s1	0.004		
O=C(Nc1ccc(Cl)c(C(=O)Nc2cncs2)c1)c1cccc(C(F)(F)F)c1	0.004		
CC(C)Oc1cc2ncc(C(N)=O)c(Nc3ccc(Cl)c(Cl)c3)c2cc1N1CCN(C)CC1	0.0099		
O=C(Cc1ccc(OCc2ccccc2)cc1)NO		0.0633	1.92
Cc1nc(C(F)(F)F)ccc1C(=O)Nc1ccc(Cl)c(-c2ccccn2)c1	0.0099		
COc1ccc(C[C@H](N)C(=O)N[C@@H](Cc2ccccc2C)C(N)=O)cc1 (H-Tyr(Me)-[Phe(2-Me)]-NH2)	0.36		
CCCCCCCC(=O)N[C@@H](CCN)C(=O)N[C@H](C(=O)N[C@@H](C)C(=O)N[C@H]1CCNC(=O)[C@H]([C@@H](C)O)NC(=O)[C@H](CCN)NC(=O)[C@H](CCN)NC(=O)[C@H](CC(C)C)NC(=O)[C@@H](Cc2ccccc2)NC(=O)[C@H](CCN)NC1=O)[C@@H](C)O (HELM PEPTIDE1{[CCCCCCCC(=O)[*:2]].[Dab].T.A.[Dab].[Dab].[dF].L.[Dab].[Dab].T}$PEPTIDE1,PEPTIDE1,5:R3-11:R2$$$V2.0)	0.112		
CCCCCCCC(=O)N[C@@H](CCN)C(=O)N[C@H](C(=O)N[C@@H](CCN)C(=O)N[C@H]1CCNC(=O)[C@H]([C@@H](C)O)NC(=O)[C@H](C)NC(=O)[C@H](CCN)NC(=O)[C@H](CC(C)C)NC(=O)[C@@H](Cc2ccccc2)NC(=O)[C@H](CCN)NC1=O)[C@@H](C)O (HELM PEPTIDE1{[CCCCCCCC(=O)[*:2]].[Dab].T.[Dab].[Dab].[Dab].[dF].L.[Dab].A.T}$PEPTIDE1,PEPTIDE1,5:R3-11:R2$$$V2.0)	0.132		

SMILES	fraction unbound at 5 h ([1]; PPB)	fraction unbound at 5 h [1]	logD [2]
O[C@H](c1cc(C(F)(F)F)nc2c(C(F)(F)F)cccc12)[C@@H]1CCCCN1 [(R,S)-MEFLOQUINE]	0.0214		
CC(C)(C)c1ccc2c(c1)CC[C@H]2NC(=O)Nc1cccc2[nH]ncc12 [ABT-102]	0.0022		
COc1ccc2c(c1O)-c1cccc3c1[C@@H](C2)N(C)CC3 [APOCIDEINE]		0.062	
CCOC(=O)[C@H](CCc1ccccc1)N[C@H]1CCc2ccccc2N(CC(=O)O)C1=O [BENAZEPRIL]	0.0409		
CC(C)C[C@H](NC(=O)[C@H](Cc1ccccc1)NC(=O)c1cnccn1)B(O)O [BORTEZOMIB]	0.132		
CCCC[C@H](NC(C)=O)C(=O)N[C@H]1CC(=O)NCCCC[C@@H](C(=O)O)NC(=O)[C@H](Cc2c[nH]c3ccccc23)NC(=O)[C@H](CCCN=C(N)N)NC(=O)[C@@H](Cc2ccccc2)NC(=O)[C@H](Cc2cnc[nH]2)NC1=O [BREMELANOTIDE]	0.729		
[H]/N=C(/N)c1ccc(NCc2nc3cc(C(=O)N(CCC(=O)O)c4ccccn4)ccc3n2C)cc1 [DABIGATRAN]	0.529		
COc1ccc(OC)c(C(O)CN)c1 (centres undefined) [DESGLYMIDODRINE]		0.78	
CC(NCCC(c1ccccc1)c1ccccc1)c1ccccc1 (centres undefined) [FENDILINE]	0.0116		
CC1=C(/C=C/C(C)=C/C=C/C(C)=C/C(=O)Nc2ccc(O)cc2)C(C)(C)CCC1 [FENRETINIDE]	0.0019		
COc1cc2ncn(-c3cc(OCc4ccccc4S(C)(=O)=O)c(C#N)s3)c2cc1OC [GSK-319347A]	0.0111		
Fc1ccc(-c2c3cccc(C(F)(F)F)c3nn2Cc2ccc(F)cc2Cl)cc1 [LXR-623]	0.0006		
CN(Cc1cnc2nc(N)nc(N)c2n1)c1ccc(C(=O)N[C@@H](CCC(=O)O)C(=O)O)cc1 [METHOTREXATE]	0.535		
COC(=O)/C=C/C(=O)O [MONOMETHYL FUMARATE]	0.139		
CN(CC(=O)O)NC(=O)C[C@H](N)C[C@@H](O)CN [NEGAMYCIN]	0.874		
Cc1ccnc2c1NC(=O)c1cccnc1N2C1CC1 [NEVIRAPINE]		0.557	
COc1ccc(-c2nc3ccc(C4=NNC(=O)CC4C)cc3[nH]2)cc1 (centres undefined) [PIMOBENDAN]	0.11		
CCOc1cc(CC(=O)N[C@@H](CC(C)C)c2ccccc2N2CCCCC2)ccc1C(=O)O [REPAGLINIDE]	0.009		
COC(=O)N(C)c1c(N)nc(-c2nn(Cc3ccccc3F)c3ncccc23)nc1N [RIOCIGUAT]		0.0854	
CS(=O)(=O)c1ccc(C2=C(c3ccccc3)C(=O)OC2)cc1 [ROFECOXIB]	0.069		
Nc1ccc(S(=O)(=O)Nc2ccnn2-c2ccccc2)cc1 [SULFAPHENAZOLE]	0.0059		
CCN(CC)CCOc1ccc2c(c1)C(=O)c1cc(OCCN(CC)CC)ccc1-2 [TILORONE]	0.517		
COc1cc(Cc2cnc(N)nc2N)cc(OC)c1OC [TRIMETHOPRIM]	0.339		
Cc1ccc(/C(=C\CN2CCCC2)c2ccccn2)cc1 [TRIPROLIDINE]	0.645		
O=C(O)[C@@H](c1ccc(OCc2ccc3ccccc3n2)cc1)C1CCCC1 [VELIFLAPON]	0.0015		
C[C@@H](c1ncncc1F)[C@](O)(Cn1cncn1)c1ccc(F)cc1F [VORICONAZOLE]		0.535	
